Data taken from article PMC5544527 (Journal of neuroscience research, 2015).

Experiments:
Format in all cases: cell-based
GABAA receptor α1β2γ2 [1] = target: T1, GABAA receptor α1β2γ2 (Homo sapiens, UniProt P14867+P47870); test: whole-cell patch clamp, potentiation of GABA
GABAA receptor α4β3δ = GABAA receptor α4β3δ (Homo sapiens, UniProt P28472+P48169); test: whole-cell patch clamp, potentiation of GABA
GABAA receptor α1β2γ2 [2] = target: T1, GABAA receptor α1β2γ2; test: whole-cell patch clamp, potentiation of GABA-evoked currents at […]

T1 sequence (P14867 28-456): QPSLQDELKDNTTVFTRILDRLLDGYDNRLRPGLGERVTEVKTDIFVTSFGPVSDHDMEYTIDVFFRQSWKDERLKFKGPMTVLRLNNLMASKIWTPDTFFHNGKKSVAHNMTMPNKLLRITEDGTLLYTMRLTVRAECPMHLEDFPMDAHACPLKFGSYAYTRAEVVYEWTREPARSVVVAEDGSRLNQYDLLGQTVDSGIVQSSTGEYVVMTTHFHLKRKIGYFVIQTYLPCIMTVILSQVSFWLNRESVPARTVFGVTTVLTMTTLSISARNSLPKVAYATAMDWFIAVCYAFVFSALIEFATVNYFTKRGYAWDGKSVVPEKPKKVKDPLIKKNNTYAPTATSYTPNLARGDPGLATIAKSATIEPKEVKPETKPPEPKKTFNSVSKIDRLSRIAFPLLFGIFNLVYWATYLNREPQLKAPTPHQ
T1 sequence (P47870 26-512): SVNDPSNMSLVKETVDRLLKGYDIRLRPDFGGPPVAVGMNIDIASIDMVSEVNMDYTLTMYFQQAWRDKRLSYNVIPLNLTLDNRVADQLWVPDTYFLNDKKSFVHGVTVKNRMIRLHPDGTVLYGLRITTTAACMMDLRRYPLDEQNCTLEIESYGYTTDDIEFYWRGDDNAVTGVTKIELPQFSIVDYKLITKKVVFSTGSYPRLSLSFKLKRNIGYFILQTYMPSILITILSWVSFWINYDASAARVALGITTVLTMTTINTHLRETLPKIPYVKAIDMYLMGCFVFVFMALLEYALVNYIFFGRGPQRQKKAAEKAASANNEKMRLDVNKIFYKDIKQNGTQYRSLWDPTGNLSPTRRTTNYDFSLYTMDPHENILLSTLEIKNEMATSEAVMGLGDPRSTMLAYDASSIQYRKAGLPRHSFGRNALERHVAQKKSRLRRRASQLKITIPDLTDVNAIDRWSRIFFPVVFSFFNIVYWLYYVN
T1 sequence (P18507 40-475 partner): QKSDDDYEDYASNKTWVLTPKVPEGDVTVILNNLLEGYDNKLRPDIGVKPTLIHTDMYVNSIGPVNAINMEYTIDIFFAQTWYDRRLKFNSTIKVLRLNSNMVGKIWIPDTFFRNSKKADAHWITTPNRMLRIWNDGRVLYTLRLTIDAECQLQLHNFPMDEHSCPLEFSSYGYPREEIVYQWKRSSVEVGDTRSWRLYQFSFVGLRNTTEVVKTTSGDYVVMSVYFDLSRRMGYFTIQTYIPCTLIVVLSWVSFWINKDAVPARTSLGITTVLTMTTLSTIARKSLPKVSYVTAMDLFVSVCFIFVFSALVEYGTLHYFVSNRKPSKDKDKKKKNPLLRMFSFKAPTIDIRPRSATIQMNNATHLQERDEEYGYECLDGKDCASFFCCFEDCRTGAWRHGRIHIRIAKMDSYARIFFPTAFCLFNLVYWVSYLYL
Sequence of GABAA receptor α4β3δ (P48169 36-554): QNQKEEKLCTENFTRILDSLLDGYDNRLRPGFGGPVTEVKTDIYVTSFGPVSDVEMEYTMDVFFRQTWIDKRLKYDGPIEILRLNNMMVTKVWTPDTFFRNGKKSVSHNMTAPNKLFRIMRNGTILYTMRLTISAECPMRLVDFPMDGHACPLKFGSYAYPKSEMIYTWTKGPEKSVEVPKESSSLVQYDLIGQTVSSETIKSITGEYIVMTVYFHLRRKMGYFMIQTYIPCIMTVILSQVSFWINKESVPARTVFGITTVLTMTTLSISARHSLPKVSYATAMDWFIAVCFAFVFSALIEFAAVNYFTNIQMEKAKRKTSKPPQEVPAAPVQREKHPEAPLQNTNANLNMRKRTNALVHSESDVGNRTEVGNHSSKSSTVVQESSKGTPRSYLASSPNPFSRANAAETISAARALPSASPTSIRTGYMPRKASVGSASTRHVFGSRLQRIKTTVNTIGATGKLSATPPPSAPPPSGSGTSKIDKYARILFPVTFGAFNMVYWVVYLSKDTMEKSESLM
Sequence of GABAA receptor α4β3δ (P28472 26-473): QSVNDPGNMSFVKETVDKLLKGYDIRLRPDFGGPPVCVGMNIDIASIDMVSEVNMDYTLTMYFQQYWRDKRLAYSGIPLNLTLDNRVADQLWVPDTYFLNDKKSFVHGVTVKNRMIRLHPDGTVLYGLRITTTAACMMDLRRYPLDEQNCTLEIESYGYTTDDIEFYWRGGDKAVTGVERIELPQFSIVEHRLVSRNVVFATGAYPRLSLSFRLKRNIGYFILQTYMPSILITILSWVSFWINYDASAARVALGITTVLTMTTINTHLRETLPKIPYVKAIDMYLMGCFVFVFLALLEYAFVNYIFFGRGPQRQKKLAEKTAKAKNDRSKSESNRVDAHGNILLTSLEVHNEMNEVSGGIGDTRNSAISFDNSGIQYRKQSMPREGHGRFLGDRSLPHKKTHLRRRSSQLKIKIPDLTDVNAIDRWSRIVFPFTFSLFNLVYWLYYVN
Sequence of GABAA receptor α4β3δ (O14764 25-452 partner): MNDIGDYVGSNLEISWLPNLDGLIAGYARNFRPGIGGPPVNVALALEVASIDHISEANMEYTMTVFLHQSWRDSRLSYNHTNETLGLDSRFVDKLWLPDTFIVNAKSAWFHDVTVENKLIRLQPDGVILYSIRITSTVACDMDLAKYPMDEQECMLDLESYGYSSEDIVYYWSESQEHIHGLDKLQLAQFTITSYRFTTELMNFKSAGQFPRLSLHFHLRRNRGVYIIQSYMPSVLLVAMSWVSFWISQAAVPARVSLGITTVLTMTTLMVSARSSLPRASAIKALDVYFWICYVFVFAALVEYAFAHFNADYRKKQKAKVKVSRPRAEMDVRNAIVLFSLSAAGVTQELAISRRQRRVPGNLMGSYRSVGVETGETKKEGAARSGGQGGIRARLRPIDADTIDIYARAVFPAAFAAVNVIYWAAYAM

Row | Compound | EC50 (GABAA receptor α1β2γ2 [1]) [nM] | EC50 (GABAA receptor α4β3δ) [nM] | % potentiation at 10 μM (GABAA receptor α1β2γ2 [2]) [% potentiation at 10 µM]
1 | CC(=O)[C@H]1CC[C@H]2[C@@H]3CC[C@H]4C[C@H](O)CC[C@]4(C)[C@H]3CC[C@]12C [allopregnanolone] | 185 | 80 | –
2 | SGE-872 | – | 160 | 744
